# According to patent US11078170B2 (Assembly Biosciences, Inc., priority 2017, dated 2021):
# System: HBV viral production from HepAD38 cells
# Test: Activity of test compounds on viral production from HepAD38 cells (viral load by qPCR of HBV core sequence in supernatant)
# Type: cell-based
# Conditions: Hepatitis B virus, 120 h, 5 days incubation, HBV DNA in supernatant by qPCR, top concentration 10 μM, read-out: Viral Load EC50 Activity range
# Description: Assay Measuring Activity of Test Compounds on Viral Production from HepAD38 Cells
# HepAD38 cells grown in a T-150 flask (Corning, cat #: 430825) with Growth Medium (DMEM/F12 (1:1) (Hyclone, cat #: SH30023.02), 1×Pen/Strep (Invitrogen, cat #: 15140-122), 10% FBS (Tissue Culture Biologics, cat #: 101), 250 μg/mL G418 (Alfa Aesar, cat #: J62671), 1 μg/mL Tetracycline (Teknova, cat #: T3320)) were detached with 0.25% trypsin-EDTA (Invitrogen, cat #: 25200-056). Tetracycline-free treatment medium (15 mL DMEM/F12 (1:1) 1× Pen/step, with 2% FBS, Tet-system approved (Clontech, cat #: 631106) were then added to mix, transferred into a 50 ml conical tube (Falcon, cat #: 21008-918) and spun at 1300 rpm for 5 min. Pelleted cells were then re-suspended/washed with 50 mL of 1×DPBS (Invitrogen, cat #: 14190-136) 2 times and 50 mL treatment medium twice. HepAD38 cells were then re-suspended with 10 mL of treatment medium, syringed and counted. Wells of 96-well clear bottom TC plate (Corning, cat #: 3904) were seeded at 50,000 cells/well in 180 μL of treatment medium, and 20 μL of either 10% DMSO (Sigma, cat #: D4540) as controls or a 10× solution of test compounds in 10% DMSO in treatment media was added for a final compound concentration starting at 10 μM, and plates were incubated in 5% CO2 incubator at 37° C. for 5 days.
# Subsequently viral load production was assayed by quantitative PCR (qPCR) of the HBV core sequence. PCR reaction mixture containing forward primers HBV-f 5′-CTGTGCCTTGGGTGGCTTT-3′, which is SEQ ID NO 1, (IDT DNA), Reverse primers HBV-r 5′-[…]-3′, which is SEQ ID NO 2 (IDT DNA), Fluorescent TaqMan™ Probes HBV-probe 5′-FAM/AGCTCCAAA/ZEN/[…]/3IABkFQ-3′ (IDT DNA), which is SEQ ID NO 3, 10 μL/well of PerfeCTa® qPCR ToughMix® (Quanta Biosciences, Cat #: 95114-05K), and 6 µL/well of DEPC water (Alfa Aesar, cat #: J62087) was prepared. Four μL of supernatant was added to 16 μL of the reaction mixture in a qPCR plate (Applied Biosytems, Cat #: 4309849), sealed with a film (Applied Biosystems, Cat #: 4311971), centrifuged for a few seconds, and subsequently run on an Applied Biosystems VIIA7. The PCR mixture was incubated at 45° C. for 5 min, then 95° C. for 10 min, followed by 40 cycles of 10 seconds at 95° C. and 20 seconds at 60° C. Viral load was quantified against known HBV DNA standards by using ViiA™ 7 Software. Viral load in the supernatant from wells with treated cells were compared against viral load in supernatant from DMSO control wells (≥3 per plate). Cell viability assay was performed with CellTiter-Glo Luminescent Cell Viability Assay (Promega, cat #: G7573) with modification. Mixed appropriate amount of CellTiter-Glo (CTG) 1×DPBS in a 1:1 ratio, added 100 uL of the mixture to each well followed completely removal of all supernatant in each well without touching cell surface. Incubated the plate at room temperature for 10 min on an orbital shaker, and then read the plate with a plate reader (TECAN M1000 or Envision). EC50 or CC50 values were calculated through curve-fitting of the four-parameter nonlinear-logistic-regression model (GraphPad Prism or Dotmatics). CC50 values were all >10 μM.
row,Structure (SMILES),EC50
1,CN1[C@@H](C(=O)Nc2ccc(F)c(Cl)c2)C[C@@H](c2ncc(-c3ccccc3)s2)NS1(=O)=O,1000 to 5000 nM
2,"CN1[C@@H](C(=O)Nc2ccc(F)c(Cl)c2)C[C@@H](c2ncc(-c3cn[nH]c3)s2)NS1(=O)=O [HBV-CSU-254-ISO-II, Cis-5-(5-(1H-pyrazol-4-yl)thiazol-2-yl)-N-(3-chloro-4-fluorophenyl)-2-methyl-1,2,6-thiadiazinane-3-carboxamide 1,1-dioxide]",1000 to 5000 nM
3,Cc1cnc(C2CC(C(=O)Nc3ccc(F)c(Cl)c3)N(C)S(=O)(=O)N2)s1 (stereo not drawn),< 1000 nM
4,"C#CCCN1C(C(=O)Nc2ccc(F)c(Cl)c2)CC(c2nccs2)NS1(=O)=O (stereo not drawn) [HBV-CSU-090, Cis-2-(But-3-yn-1-yl)-N-(3-chloro-4-fluorophenyl)-5-(thiazol-2-yl)-1,2,6-thiadiazinane-3-carboxamide 1,1-dioxide]",< 1000 nM
5,CN1C(C(=O)Nc2ccc(F)c(Cl)c2)CC(c2ncc(-c3ccccc3)s2)NS1(=O)=O (stereo not drawn),< 1000 nM
6,"[2H]C1[C@]([2H])(C(=O)Nc2ccc(F)c(Cl)c2)N(C([2H])([2H])[2H])S(=O)(=O)N[C@]1([2H])c1ccc(Br)s1 (stereo in doubt) [HBV-CSU-372-ISO-II, Cis-5-(5-bromothiophen-2-yl)-N-(3-chloro-4-fluorophenyl)-2-(methyl-d3)-1,2,6-thiadiazinane-3,4,5-d3-3-carboxamide 1,1-dioxide]",1000 to 5000 nM
7,CN1[C@H](C(=O)Nc2ccc(F)c(Cl)c2)C[C@H](c2cc(-c3ccc(F)cc3)cs2)NS1(=O)=O [HBV-CSU-239-ISO-I],< 1000 nM
8,"CN1[C@@H](C(=O)Nc2ccc(F)c(Cl)c2)C[C@@H](C2CCCC2)NS1(=O)=O [HBV-CSU-222-ISO-II, Cis-N-(3-chloro-4-fluorophenyl)-5-cyclopentyl-2-methyl-1,2,6-thiadiazinane-3-carboxamide 1,1-dioxide]",1000 to 5000 nM
9,"CN1[C@H](C(=O)Nc2ccc(F)c(Cl)c2)C[C@H](c2ccc(-c3cnn(C)c3)cc2)NS1(=O)=O [HBV-CSU-246-ISO-II, Cis-N-(3-Chloro-4-fluorophenyl)-2-methyl-5-(4-(1-methyl-1H-pyrazol-4-yl)phenyl)-1,2,6-thiadiazinane-3-carboxamide 1,1-dioxide]",< 1000 nM
10,"CN1[C@H](C(=O)Nc2ccc(F)c(Cl)c2)C[C@H](c2cc(-c3ccc(C(F)(F)F)nc3)cs2)NS1(=O)=O [HBV-CSU-166-ISO-I, Cis-N-(3-chloro-4-fluorophenyl)-2-methyl-5-(4-(6-(trifluoromethyl)pyridin-3-yl)thiophen-2-yl)-1,2,6-thiadiazinane-3-carboxamide 1,1-dioxide]",< 1000 nM
11,"[2H]C1[C@]([2H])(C(=O)Nc2ccc(F)c(Cl)c2)N(C([2H])([2H])[2H])S(=O)(=O)N[C@]1([2H])c1ncc(-c2cn(C)cn2)s1 (stereo in doubt) [HBV-CSU-340-ISO-II, Cis-N-(3-Chloro-4-fluorophenyl)-2-(methyl-d3)-5-(5-(1-methyl-1H-imidazol-4-yl)thiazol-2-yl)-1,2,6-thiadiazinane-3,4,5-d3-3-carboxamide 1,1-dioxide]",1000 to 5000 nM
12,"Cc1c(-c2ccc(C3CC(C(=O)Nc4ccc(F)c(Cl)c4)N(C)S(=O)(=O)N3)s2)cnn1C (racemic) [HBV-CSU-312, Cis-N-(3-chloro-4-fluorophenyl)-5-(5-(1,5-dimethyl-1H-pyrazol-4-yl)thiophen-2-yl)-2-methyl-1,2,6-thiadiazinane-3-carboxamide 1,1-dioxide]",< 1000 nM
13,"COCCN1[C@@H](c2cccs2)C[C@@H](C(=O)Nc2ccc(F)c(Cl)c2)NS1(=O)=O [HBV-CSU-044-ISO-II, Cis-N-(3-Chloro-4-fluorophenyl)-6-(2-methoxyethyl)-5-(thiophen-2-yl)-1,2,6-thiadiazinane-3-carboxamide 1,1-dioxide]",> 5000 nM
14,"CCN(CC)CCCN1[C@H](C(=O)Nc2ccc(F)c(Cl)c2)C[C@H](c2nccs2)NS1(=O)=O (relative stereo) [HBV-CSU-101-ISO-II, Cis-N-(3-Chloro-4-fluorophenyl)-2-(3-(diethylamino)propyl)-5-(thiazol-2-yl)-1,2,6-thiadiazinane-3-carboxamide 1,1-dioxide]",> 5000 nM
15,"COCCCN1[C@@H](C(=O)Nc2ccc(F)c(Cl)c2)C[C@@H](c2nccs2)NS1(=O)=O [HBV-CSU-077-ISO-I, Cis-N-(3-Chloro-4-fluorophenyl)-2-(3-methoxypropyl)-5-(thiazol-2-yl)-1,2,6-thiadiazinane-3-carboxamide 1,1-dioxide]",> 5000 nM
16,"CN1[C@@H](C(=O)Nc2ccc(F)c(Cl)c2)C[C@@H](c2ccc(-c3ccccc3)s2)NS1(=O)=O (relative stereo) [HBV-CSU-116-ISO-II, Cis-N-(3-chloro-4-fluorophenyl)-2-methyl-5-(5-phenylthiophen-2-yl)-1,2,6-thiadiazinane-3-carboxamide 1,1-dioxide]",1000 to 5000 nM
17,"CCN1C(C(=O)Nc2ccc(F)c(Cl)c2)CC(c2cccs2)NS1(=O)=O (racemic) [HBV-CSU-024, Cis-N-(3-chloro-4-fluorophenyl)-2-ethyl-5-(thiophen-2-yl)-1,2,6-thiadiazinane-3-carboxamide 1,1-dioxide]",< 1000 nM
18,"CN1[C@H](C(=O)Nc2ccc(F)c(Br)c2)C[C@H](c2nccs2)NS1(=O)=O [HBV-CSU-060-ISO-II, Cis-N-(3-bromo-4-fluorophenyl)-2-methyl-5-(thiazol-2-yl)-1,2,6-thiadiazinane-3-carboxamide 1,1-dioxide]",< 1000 nM
19,"CN1C(C(=O)Nc2ccc(F)c(Cl)c2)CC(c2ccc3c(c2)ncn3C)NS1(=O)=O (racemic) [HBV-CSU-360, Cis-N-(3-chloro-4-fluorophenyl)-2-methyl-5-(1-methyl-1H-benzo[d]imidazol-5-yl)-1,2,6-thiadiazinane-3-carboxamide 1,1-dioxide]",< 1000 nM
20,"CN1[C@H](C(=O)Nc2ccc(F)c(Cl)c2)C[C@H](c2ccc(-c3cccnc3)s2)NS1(=O)=O [HBV-CSU-159-ISO-II, Cis-N-(3-chloro-4-fluorophenyl)-2-methyl-5-(5-(pyridin-3-yl)thiophen-2-yl)-1,2,6-thiadiazinane-3-carboxamide 1,1-dioxide]",< 1000 nM
21,"CN1C(C(=O)Nc2ccc(F)c(Cl)c2)CC(c2ccc(-c3cnn(C)c3)s2)NS1(=O)=O (racemic) [HBV-CSU-161, Cis-N-(3-chloro-4-fluorophenyl)-2-methyl-5-(5-(1-methyl-1H-pyrazol-4-yl)thiophen-2-yl)-1,2,6-thiadiazinane-3-carboxamide 1,1-dioxide]",< 1000 nM
22,"CN1[C@H](C(=O)Nc2ccc(F)c(Cl)c2)C[C@H](c2ccc(-c3ccccc3)s2)NS1(=O)=O [HBV-CSU-116-ISO-I, Cis-N-(3-chloro-4-fluorophenyl)-2-methyl-5-(5-phenylthiophen-2-yl)-1,2,6-thiadiazinane-3-carboxamide 1,1-dioxide]",< 1000 nM
23,"CN1C(C(=O)Nc2ccc(F)c(Cl)c2)CC(c2cc(-c3cnn(C(F)(F)F)c3)cs2)NS1(=O)=O (racemic) [HBV-CSU-325, Cis-N-(3-Chloro-4-fluorophenyl)-2-methyl-5-(4-(1-(trifluoromethyl)-1H-pyrazol-4-yl)thiophen-2-yl)-1,2,6-thiadiazinane-3-carboxamide 1,1-dioxide]",< 1000 nM
24,"Cc1nn(C)cc1-c1ccc([C@@H]2C[C@H](C(=O)Nc3ccc(F)c(Cl)c3)N(C)S(=O)(=O)N2)s1 [HBV-CSU-313-ISO-II, Cis-N-(3-chloro-4-fluorophenyl)-5-(5-(1,3-dimethyl-1H-pyrazol-4-yl)thiophen-2-yl)-2-methyl-1,2,6-thiadiazinane-3-carboxamide 1,1-dioxide]",1000 to 5000 nM
